“And” between values parts separate entries of the source, which are not always exact repeats. Equal values may be shown once. Toxic doses and inconclusive results are not listed.

The subject of the test is BDF1 mice, intracerebral L1210 leukemia, survival T/C. In words: NCI In Vivo Anticancer Drug Screen. Data for tumor model L1210 Leukemia (intracerebral) in B6D2F1 (BDF1) mice. The following applies: higher = longer survival. In a few lines:
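Readout is the T/C ratio: survival of compound-treated animals over that of vehicle-treated controls, in mice bearing transplantable tumour.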

With `COc1cccc2c1C(=O)c1c(O)c3c(c(O)c1C2=O)C[C@@](O)(C(C)=O)C[C@@H]3OC1CC(N)C(O)C(C)O1` (some centres not stated), the T/C is 101 % of control (endpoint: mean survival time, dose: 1.08 mg/kg/injection, schedule: Q04DX003 (ip), vehicle: water); 101 % of control (endpoint: mean survival time, dose: 1.8 mg/kg/injection, schedule: Q04DX003 (ip), vehicle: water); 97 % of control (endpoint: mean survival time, dose: 3.0 mg/kg/injection, schedule: Q04DX003 (ip), vehicle: water); 102 % of control (endpoint: mean survival time, dose: 3.12 mg/kg/injection, schedule: Q01DX001 (ip), vehicle: water); 102 % of control (endpoint: mean survival time, dose: 5.0 mg/kg/injection, schedule: Q04DX003 (ip), vehicle: water); 97 % of control (endpoint: mean survival time, dose: 6.25 mg/kg/injection, schedule: Q01DX001 (ip), vehicle: water). Also, the T/C runs as follows: (endpoint: mean survival time, dose: 12.5 mg/kg/injection, schedule: Q01DX001 (ip), vehicle: water) 91 % of control; (endpoint: mean survival time, dose: 25.0 mg/kg/injection, schedule: Q01DX001 (ip), vehicle: water) 96 % of control; (endpoint: median survival time, dose: 1.08 mg/kg/injection, schedule: Q04DX003 (ip), vehicle: water) 97 % of control; (endpoint: median survival time, dose: 1.8 mg/kg/injection, schedule: Q04DX003 (ip), vehicle: water) 96 % of control; (endpoint: median survival time, dose: 3.0 mg/kg/injection, schedule: Q04DX003 (ip), vehicle: water) 96 % of control; (endpoint: median survival time, dose: 5.0 mg/kg/injection, schedule: Q04DX003 (ip), vehicle: water) 96 % of control. For the same compound, the T/C (endpoint: median survival time, dose: 8.4 mg/kg/injection, schedule: Q04DX003 (ip), vehicle: water) was 95 % of control.

With `NCCc1ccc(O)c(O)c1`, the T/C was 102 % of control (endpoint: mean survival time, dose: 100.0 mg/kg/injection, schedule: Q04DX003 (ip), vehicle: saline); 95 % of control (endpoint: mean survival time, dose: 200.0 mg/kg/injection, schedule: Q04DX003 (ip), vehicle: saline); 98 % of control (endpoint: mean survival time, dose: 400.0 mg/kg/injection, schedule: Q04DX003 (ip), vehicle: saline); 97 % of control (endpoint: mean survival time, dose: 800.0 mg/kg/injection, schedule: Q04DX003 (ip), vehicle: saline).

Regarding `O=NN(CCCl)C(=O)NC1CCC(NC(=O)N(CCCl)N=O)CC1` (configuration not stated), the T/C was 119 % of control (endpoint: mean survival time, dose: 38.0 mg/kg/injection, schedule: Q01DX001 (oral), vehicle: other); 151 % of control and 157 % of control (endpoint: mean survival time, dose: 48.0 mg/kg/injection, schedule: Q01DX001 (ip), vehicle: other); 154 % of control (endpoint: mean survival time, dose: 84.0 mg/kg/injection, schedule: Q01DX001 (oral), vehicle: other); 276 % of control and 370 % of control (endpoint: mean survival time, dose: 96.0 mg/kg/injection, schedule: Q01DX001 (ip), vehicle: other); 232 % of control (endpoint: mean survival time, dose: 127.0 mg/kg/injection, schedule: Q01DX001 (ip), vehicle: carboxymethylcellulose (CMC)); 209 % of control (endpoint: mean survival time, dose: 171.0 mg/kg/injection, schedule: Q01DX001 (oral), vehicle: other). In addition, the T/C reads like this: (endpoint: mean survival time, dose: 191.0 mg/kg/injection, schedule: Q01DX001 (ip), vehicle: other) 291 % of control and 389 % of control; (endpoint: mean survival time, dose: 255.0 mg/kg/injection, schedule: Q01DX001 (ip), vehicle: carboxymethylcellulose (CMC)) 307 % of control; (endpoint: mean survival time, dose: 319.0 mg/kg/injection, schedule: Q01DX001 (oral), vehicle: other) 198 % of control and 260 % of control; (endpoint: mean survival time, dose: 383.0 mg/kg/injection, schedule: Q01DX001 (ip), vehicle: other) 154 % of control; (endpoint: mean survival time, dose: 510.0 mg/kg/injection, schedule: Q01DX001 (ip), vehicle: carboxymethylcellulose (CMC)) 154 % of control; (endpoint: mean survival time, dose: 638.0 mg/kg/injection, schedule: Q01DX001 (oral), vehicle: other) 268 % of control and 398 % of control.

For the compound `O=C(O)CCCc1ccc(N(CCCl)CCCl)cc1`, the T/C by setting is: (endpoint: mean survival time, dose: 18.0 mg/kg/injection, schedule: Q01DX001 (ip), vehicle: carboxymethylcellulose (CMC)) 105 % of control; (endpoint: mean survival time, dose: 27.0 mg/kg/injection, schedule: Q01DX001 (ip), vehicle: carboxymethylcellulose (CMC)) 112 % of control; (endpoint: mean survival time, dose: 41.0 mg/kg/injection, schedule: Q01DX001 (ip), vehicle: carboxymethylcellulose (CMC)) 112 % of control.

Consider `CCOC(=O)C1(NC(=O)N(CCCl)N=O)CCCC1`, for which the T/C (endpoint: mean survival time, dose: 74.0 mg/kg/injection, schedule: Q01DX001 (ip), vehicle: other) is 116 % of control; the T/C (endpoint: mean survival time, dose: 108.0 mg/kg/injection, schedule: Q01DX001 (ip), vehicle: other) was 119 % of control; the T/C (endpoint: mean survival time, dose: 110.0 mg/kg/injection, schedule: Q01DX001 (ip), vehicle: other) is 118 % of control; the T/C (endpoint: mean survival time, dose: 168.0 mg/kg/injection, schedule: Q01DX001 (ip), vehicle: other) is 152 % of control; the T/C (endpoint: mean survival time, dose: 250.0 mg/kg/injection, schedule: Q01DX001 (ip), vehicle: other) is 174 % of control and 275 % of control; the T/C (endpoint: mean survival time, dose: 370.0 mg/kg/injection, schedule: Q01DX001 (ip), vehicle: other) was 152 % of control. For the same compound, the T/C (endpoint: mean survival time, dose: 375.0 mg/kg/injection, schedule: Q01DX001 (ip), vehicle: other) was 124 % of control.

Turning to `COc1cc(NS(C)(=O)=O)ccc1Nc1c2ccc([N+](=O)[O-])cc2nc2c(C)cccc12`, the T/C is, setting by setting: (endpoint: mean survival time, dose: 2.5 mg/kg/injection, schedule: Q01DX009 (ip), vehicle: saline) 93 % of control; (endpoint: mean survival time, dose: 2.5 mg/kg/injection, schedule: Q01DX009 (sc), vehicle: saline) 93 % of control; (endpoint: mean survival time, dose: 5.0 mg/kg/injection, schedule: Q01DX009 (ip), vehicle: saline) 103 % of control; (endpoint: mean survival time, dose: 5.0 mg/kg/injection, schedule: Q01DX009 (sc), vehicle: saline) 96 % of control; (endpoint: mean survival time, dose: 10.0 mg/kg/injection, schedule: Q01DX009 (sc), vehicle: saline) 93 % of control.

For the compound `CCOCCN1CCN(CCCN2c3ccccc3Sc3ccc(C(F)(F)F)cc32)CC1`, the T/C was 106 % of control (endpoint: mean survival time, dose: 0.78 mg/kg/injection, schedule: Q01DX009 (ip), vehicle: water); 103 % of control (endpoint: mean survival time, dose: 1.56 mg/kg/injection, schedule: Q01DX009 (ip), vehicle: water); 106 % of control (endpoint: mean survival time, dose: 25.0 mg/kg/injection, schedule: Q04DX003 (ip), vehicle: water).

In the case of `CCNC(=O)N(CC)N=O`, the T/C (endpoint: mean survival time, dose: 222.0 mg/kg/injection, schedule: Q01DX001 (ip), vehicle: saline) was 100 % of control; the T/C (endpoint: mean survival time, dose: 333.0 mg/kg/injection, schedule: Q01DX001 (ip), vehicle: saline) was 110 % of control; the T/C (endpoint: mean survival time, dose: 500.0 mg/kg/injection, schedule: Q01DX001 (ip), vehicle: saline) is 123 % of control.

In the case of `N[C@H](C(=O)O)[C@H]1ON=C(Cl)[C@@H]1O`, the T/C runs as follows: (endpoint: mean survival time, dose: 8.0 mg/kg/injection, schedule: Q01DX009 (ip), vehicle: saline) 109 % of control; (endpoint: mean survival time, dose: 16.0 mg/kg/injection, schedule: Q01DX009 (ip), vehicle: saline) 115 % of control; (endpoint: median survival time, dose: 256.0 mg/kg/injection, schedule: Q01DX009 (ip), vehicle: saline) 123 % of control; (endpoint: median survival time, dose: 512.0 mg/kg/injection, schedule: Q01DX009 (ip), vehicle: saline) 111 % of control; (endpoint: median survival time, dose: 1024.0 mg/kg/injection, schedule: Q01DX009 (ip), vehicle: saline) 171 % of control.

Turning to `CN(N=O)C(=O)Nc1c[nH]c(=O)[nH]c1=O`, the T/C (endpoint: mean survival time, dose: 60.0 mg/kg/injection, schedule: Q01DX001 (ip), vehicle: saline) is 103 % of control; the T/C (endpoint: mean survival time, dose: 120.0 mg/kg/injection, schedule: Q01DX001 (ip), vehicle: saline) is 104 % of control; the T/C (endpoint: mean survival time, dose: 480.0 mg/kg/injection, schedule: Q01DX001 (ip), vehicle: saline) was 108 % of control; the T/C (endpoint: mean survival time, dose: 960.0 mg/kg/injection, schedule: Q01DX001 (ip), vehicle: saline) was 86 % of control.

As to `C[n+]1ccc(Nc2ccc(NC(=O)c3ccc(Nc4cc[n+](C)c5ccc(N)cc45)cc3)cc2)cc1`, the T/C (endpoint: mean survival time, dose: 0.5 mg/kg/injection, schedule: Q01DX009 (ip), vehicle: Klucel (hydroxypropylcellulose) (HPC)) is 93 % of control; the T/C (endpoint: mean survival time, dose: 1.0 mg/kg/injection, schedule: Q01DX009 (ip), vehicle: Klucel (hydroxypropylcellulose) (HPC)) was 106 % of control; the T/C (endpoint: mean survival time, dose: 2.0 mg/kg/injection, schedule: Q01DX009 (ip), vehicle: Klucel (hydroxypropylcellulose) (HPC)) is 103 % of control; the T/C (endpoint: mean survival time, dose: 4.0 mg/kg/injection, schedule: Q01DX009 (ip), vehicle: Klucel (hydroxypropylcellulose) (HPC)) was 110 % of control; the T/C (endpoint: mean survival time, dose: 8.0 mg/kg/injection, schedule: Q01DX009 (ip), vehicle: Klucel (hydroxypropylcellulose) (HPC)) is 122 % of control.

For `O=NN(CCCl)C(=O)Nc1ccccc1Cl`, the T/C reads like this: (endpoint: mean survival time, dose: 22.0 mg/kg/injection, schedule: Q01DX001 (ip), vehicle: carboxymethylcellulose (CMC)) 100 % of control; (endpoint: mean survival time, dose: 33.0 mg/kg/injection, schedule: Q01DX001 (ip), vehicle: carboxymethylcellulose (CMC)) 89 % of control; (endpoint: mean survival time, dose: 50.0 mg/kg/injection, schedule: Q01DX001 (ip), vehicle: carboxymethylcellulose (CMC)) 100 % of control.
